Results taken from patent publication US9353082B2, “Pharmaceutical compounds” (BIAL—PORTELA & CA, S.A., priority 2008, dated 2016).

Experiments:
FAAH [1] = molecular target: T1, FAAH (Mus musculus, UniProt O08914); assay: In vivo FAAH inhibition after oral dosing, remaining activity in brain homogenate (BRh, central nervous tissue); design: species or system NMRI mice; conditions: brain homogenate; for In Vivo BRh 3 mg·kg 8 h (remaining FAAH activity, % of control): 8 h after dosing, low value = strong inhibitor
T1 construct: A fragment of liver, left lung lobe and brain without cerebellum were removed; from tissue; host or cells: male NMRI mice; brain (without cerebellum) and liver homogenates
T1 sequence (O08914 1-579): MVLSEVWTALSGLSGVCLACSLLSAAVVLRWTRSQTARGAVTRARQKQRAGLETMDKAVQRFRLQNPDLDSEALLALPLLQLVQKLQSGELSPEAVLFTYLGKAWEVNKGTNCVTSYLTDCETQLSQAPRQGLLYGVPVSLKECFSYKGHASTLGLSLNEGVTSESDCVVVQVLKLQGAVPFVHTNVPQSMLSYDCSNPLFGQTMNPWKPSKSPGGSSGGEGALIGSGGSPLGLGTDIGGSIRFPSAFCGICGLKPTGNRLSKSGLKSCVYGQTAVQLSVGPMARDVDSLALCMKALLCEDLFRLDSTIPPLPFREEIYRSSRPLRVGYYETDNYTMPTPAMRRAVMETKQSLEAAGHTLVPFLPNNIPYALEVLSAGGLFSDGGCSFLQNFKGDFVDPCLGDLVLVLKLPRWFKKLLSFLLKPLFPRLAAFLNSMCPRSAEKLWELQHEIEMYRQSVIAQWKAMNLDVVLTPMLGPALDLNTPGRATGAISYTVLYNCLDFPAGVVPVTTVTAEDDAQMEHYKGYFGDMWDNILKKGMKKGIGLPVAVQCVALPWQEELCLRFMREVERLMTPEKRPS
Method in brief: (§1)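 Remaining FAAH activity is given as % of vehicle-treated controls after blank subtraction, measured by radiolabelled AEA hydrolysis (2 μM AEA, 5 nM 3H-AEA, 37 °C) in brain (10 min) or liver (7 min) homogenates. These came from fasted male NMRI mice dosed orally at 30 or 3 mg/kg.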

FAAH [2] = molecular target: T1, FAAH; assay: In vivo FAAH inhibition after oral dosing, remaining activity in liver homogenate (LVh, peripheral tissue); design: species or system NMRI mice; conditions: liver homogenate; for In Vivo LVh 3 mg·kg 8 h (remaining FAAH activity, % of control): 8 h after dosing, low value = strong inhibitor
Method in brief: as §1

FAAH [3] = molecular target: T2, FAAH (Rattus norvegicus, UniProt P97612); assay: In vitro FAAH activity in rat brain membranes, 3H-AEA substrate, % of control; assay type: biochemical, Wistar rats; conditions: low value = strong inhibitor; for In Vitro FAAH activity, 100 nM: 100 nM test compound; for In Vitro FAAH activity, 10 uM: 10 uM test compound; for In Vitro 100 nM (FAAH activity, % of control): rat brain membranes, compound at 100 nM
T2 construct: Frozen brains (without cerebellum) from Wistar rats were used; from tissue; host or cells: Wistar rat brain (without cerebellum), washed membrane pellets
T2 sequence (P97612 1-579): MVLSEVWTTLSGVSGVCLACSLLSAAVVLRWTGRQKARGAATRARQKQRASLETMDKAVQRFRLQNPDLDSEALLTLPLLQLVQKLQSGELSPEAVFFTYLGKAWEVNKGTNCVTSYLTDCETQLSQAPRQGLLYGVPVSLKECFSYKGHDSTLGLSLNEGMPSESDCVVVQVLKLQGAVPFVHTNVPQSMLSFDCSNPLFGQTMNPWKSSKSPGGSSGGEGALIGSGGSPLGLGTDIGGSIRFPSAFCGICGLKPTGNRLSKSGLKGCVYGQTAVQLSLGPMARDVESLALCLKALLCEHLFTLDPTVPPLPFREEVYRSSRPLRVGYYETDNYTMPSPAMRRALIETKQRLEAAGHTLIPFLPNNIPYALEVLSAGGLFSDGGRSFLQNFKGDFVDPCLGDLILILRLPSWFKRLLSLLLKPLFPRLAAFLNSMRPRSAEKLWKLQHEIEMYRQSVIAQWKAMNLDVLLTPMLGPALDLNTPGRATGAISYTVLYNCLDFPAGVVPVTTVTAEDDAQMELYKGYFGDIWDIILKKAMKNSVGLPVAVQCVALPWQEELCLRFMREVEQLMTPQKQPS
Method in brief: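 FAAH activity measured as 3H-ethanolamine released from 2 μM [3H]AEA over 10 min by rat brain membrane preparation, after 15 min 37 °C preincubation with test compound at 10 or 0.1 μM. Charcoal-separated supernatant scintillation-counted; values expressed as % of control minus no-protein blank.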

SMILES: O=C(N1CCC2(CC1)OCCO2)n1nnc2ccccc21 [Compound 55, 1H-benzo[d][1,2,3]triazol-1-yl(1,4-dioxa-8-azaspiro[4.5]dec-8-yl)methanone]
- In Vivo BRh 3 mg/kg 8 h, remaining FAAH activity (FAAH [1]): 42.6 % of control
- In Vivo BRh 30 mg/kg 1 h, remaining FAAH activity (FAAH [1]): 2.2 % of control
- In Vivo LVh 3 mg/kg 8 h, remaining FAAH activity (FAAH [2]): 37.8 % of control
- In Vivo LVh 30 mg/kg 1 h, remaining FAAH activity (FAAH [2]): 2.5 % of control
- In Vitro FAAH activity, 100 nM (FAAH [3]): 0.2 % of control

SMILES: CN(C(=O)n1nnc2ccccc21)c1ccc(F)cc1F [Compound 70, N-(2,4-difluorophenyl)-N-methyl-1H-benzo[d][1,2,3]triazole-1-carboxamide]
- In Vivo BRh 30 mg/kg 1 h, remaining FAAH activity (FAAH [1]): 52 % of control
- In Vivo LVh 30 mg/kg 1 h, remaining FAAH activity (FAAH [2]): 42.5 % of control
- In Vitro FAAH activity, 100 nM (FAAH [3]): 1.9 % of control

SMILES: COc1ccc(-c2cn(C(=O)N(C)C3CCCCC3)cn2)cc1OC [Compound 217, N-cyclohexyl-4-(3,4-dimethoxyphenyl)-N-methyl-1H-imidazole-1-carboxamide]
- In Vivo BRh 3 mg/kg 8 h, remaining FAAH activity (FAAH [1]): 6 % of control
- In Vivo LVh 3 mg/kg 8 h, remaining FAAH activity (FAAH [2]): 4.2 % of control
- In Vitro FAAH activity, 100 nM (FAAH [3]): 80.5 % of control
- In Vitro FAAH activity, 10 uM (FAAH [3]): 0 % of control

SMILES: Cc1nc(-c2ccccc2)nn1C(=O)N(C)C1CCCCC1 [Compound 284, N-cyclohexyl-N,5-dimethyl-3-phenyl-1H-1,2,4-triazole-1-carboxamide]
- In Vivo BRh 3 mg·kg 8 h (remaining FAAH activity, % of control) (FAAH [1]): 130.7 % of control
- In Vivo LVh 3 mg·kg 8 h (remaining FAAH activity, % of control) (FAAH [2]): 145.6 % of control
- In Vitro 100 nM (FAAH activity, % of control) (FAAH [3]): 146.2 % of control

SMILES: CC1(C)COCN1C(=O)n1cnc(-c2ccc(Oc3ccc(C(N)=O)cc3)cc2)n1 [Compound 187, 4-(4-(1-(4,4-dimethyloxazolidine-3-carbonyl)-1H-1,2,4-triazol-3-yl)phenoxy)benzamide]
- In Vivo BRh 3 mg/kg 8 h, remaining FAAH activity (FAAH [1]): 85.6 % of control
- In Vivo LVh 3 mg/kg 8 h, remaining FAAH activity (FAAH [2]): 108.6 % of control
- In Vitro FAAH activity, 100 nM (FAAH [3]): 92.8 % of control

SMILES: COc1cccc(-c2cn(C(=O)N3COCC3(C)C)cn2)c1 [Compound 329, (4,4-dimethyloxazolidin-3-yl)(4-(3-methoxyphenyl)-1H-imidazol-1-yl)methanone]
- In Vivo BRh 3 mg·kg 8 h (remaining FAAH activity, % of control) (FAAH [1]): 83.3 % of control
- In Vivo LVh 3 mg·kg 8 h (remaining FAAH activity, % of control) (FAAH [2]): 18.5 % of control
- In Vitro 100 nM (FAAH activity, % of control) (FAAH [3]): 99.5 % of control

SMILES: CC1(C)COCN1C(=O)n1cnc(-c2cccc(-c3cccc(C(N)=O)c3)c2)c1 [Compound 232, 3′-(1-(4,4-dimethyloxazolidine-3-carbonyl)-1H-imidazol-4-yl)biphenyl-3-carboxamide]
- In Vivo BRh 3 mg/kg 8 h, remaining FAAH activity (FAAH [1]): 82.8 % of control
- In Vivo LVh 3 mg/kg 8 h, remaining FAAH activity (FAAH [2]): 6.5 % of control
- In Vitro FAAH activity, 100 nM (FAAH [3]): 84.7 % of control
- In Vitro FAAH activity, 10 uM (FAAH [3]): 0 % of control

SMILES: CN(C(=O)n1cnc(-c2cccc(-c3cccc(OC(F)(F)F)c3)c2)c1)C1CCCCC1 [Compound 248, N-cyclohexyl-N-methyl-4-(3′-(trifluoromethoxy)biphenyl-3-yl)-1H-imidazole-1-carboxamide]
- In Vivo BRh 3 mg/kg 8 h, remaining FAAH activity (FAAH [1]): 104.2 % of control
- In Vivo LVh 3 mg/kg 8 h, remaining FAAH activity (FAAH [2]): 57 % of control
- In Vitro FAAH activity, 100 nM (FAAH [3]): 68.9 % of control

SMILES: CN(C(=O)n1cnc(-c2ccc(C(N)=O)cc2)c1)c1ccccc1 [Compound 113, 4-(4-carbamoylphenyl)-N-methyl-N-phenyl-1H-imidazole-1-carboxamide]
- In Vivo BRh 3 mg/kg 8 h, remaining FAAH activity (FAAH [1]): 84.1 % of control
- In Vivo LVh 3 mg/kg 8 h, remaining FAAH activity (FAAH [2]): 32.3 % of control
- In Vitro FAAH activity, 100 nM (FAAH [3]): 90.3 % of control

SMILES: COc1ccc(-c2ncn(C(=O)N3COCC3(C)C)n2)cc1 [Compound 188, (4,4-dimethyloxazolidin-3-yl)(3-(4-methoxyphenyl)-1H-1,2,4-triazol-1-yl)methanone]
- In Vivo BRh 3 mg/kg 8 h, remaining FAAH activity (FAAH [1]): 78.7 % of control
- In Vivo LVh 3 mg/kg 8 h, remaining FAAH activity (FAAH [2]): 89 % of control
- In Vitro FAAH activity, 100 nM (FAAH [3]): 103.3 % of control

SMILES: CC1(C)COCN1C(=O)n1cnc(-c2ccc(F)cc2F)n1 [Compound 183, (3-(2,4-difluorophenyl)-1H-1,2,4-triazol-1-yl)(4,4-dimethyloxazolidin-3-yl)methanone]
- In Vivo BRh 3 mg/kg 8 h, remaining FAAH activity (FAAH [1]): 92.4 % of control
- In Vivo LVh 3 mg/kg 8 h, remaining FAAH activity (FAAH [2]): 78.1 % of control
- In Vitro FAAH activity, 100 nM (FAAH [3]): 102 % of control

SMILES: CC1OCC(C)(C)N1C(=O)n1cnc(-c2ccc(Cl)cc2)c1 (stereo not shown) [Compound 235, (4-(4-chlorophenyl)-1H-imidazol-1-yl)(2,4,4-trimethyloxazolidin-3-yl)methanone]
- In Vivo BRh 3 mg/kg 8 h, remaining FAAH activity (FAAH [1]): 108.5 % of control
- In Vivo LVh 3 mg/kg 8 h, remaining FAAH activity (FAAH [2]): 80.1 % of control
- In Vitro FAAH activity, 100 nM (FAAH [3]): 76.2 % of control

SMILES: CC1(C)COCN1C(=O)n1nnc2ccccc21 [Compound 71, (1H-benzo[d][1,2,3]triazol-1-yl)(4,4-dimethyloxazolidin-3-yl)methanone]
- In Vivo BRh 3 mg/kg 8 h, remaining FAAH activity (FAAH [1]): 1.8 % of control
- In Vivo BRh 30 mg/kg 1 h, remaining FAAH activity (FAAH [1]): 0.3 % of control
- In Vivo LVh 3 mg/kg 8 h, remaining FAAH activity (FAAH [2]): 2.5 % of control
- In Vivo LVh 30 mg/kg 1 h, remaining FAAH activity (FAAH [2]): 2.2 % of control
- In Vitro FAAH activity, 100 nM (FAAH [3]): 2.3 % of control
- In Vitro FAAH activity, 10 uM (FAAH [3]): 0.1 % of control

SMILES: COc1ccc(OCCC2CCN(C(=O)n3nnc4ccccc43)CC2)cc1 [Compound 144, (1H-benzo[d][1,2,3]triazol-1-yl)(4-(2-(4-methoxyphenoxy)ethyl)piperidin-1-yl)methanone]
- In Vivo BRh 3 mg/kg 8 h, remaining FAAH activity (FAAH [1]): 68.2 % of control
- In Vivo LVh 3 mg/kg 8 h, remaining FAAH activity (FAAH [2]): 17.6 % of control
- In Vitro FAAH activity, 100 nM (FAAH [3]): 0.1 % of control

SMILES: CN(C(=O)n1cnc(-c2cccc(-c3cccc(Cl)c3)c2)c1)C1CCCCC1 [Compound 257, 4-(3′-chlorobiphenyl-3-yl)-N-cyclohexyl-N-methyl-1H-imidazole-1-carboxamide]
- In Vivo BRh 3 mg/kg 8 h, remaining FAAH activity (FAAH [1]): 60.1 % of control
- In Vivo LVh 3 mg/kg 8 h, remaining FAAH activity (FAAH [2]): 12.2 % of control
- In Vitro FAAH activity, 100 nM (FAAH [3]): 65.6 % of control

SMILES: Cc1nc(-c2ccccc2)cn1C(=O)N(C)C1CCCCC1 [Compound 279, N-cyclohexyl-N,2-dimethyl-4-phenyl-1H-imidazole-1-carboxamide]
- In Vivo BRh 3 mg·kg 8 h (remaining FAAH activity, % of control) (FAAH [1]): 91.6 % of control
- In Vivo LVh 3 mg·kg 8 h (remaining FAAH activity, % of control) (FAAH [2]): 94.1 % of control
- In Vitro 100 nM (FAAH activity, % of control) (FAAH [3]): 87.3 % of control

SMILES: COc1cc(-c2cn(C(=O)N(C)C3CCCCC3)cn2)ccc1F [Compound 319, N-cyclohexyl-4-(4-fluoro-3-methoxyphenyl)-N-methyl-1H-imidazole-1-carboxamide]
- In Vivo BRh 3 mg·kg 8 h (remaining FAAH activity, % of control) (FAAH [1]): 5.9 % of control
- In Vivo LVh 3 mg·kg 8 h (remaining FAAH activity, % of control) (FAAH [2]): 2 % of control
- In Vitro 100 nM (FAAH activity, % of control) (FAAH [3]): 19.2 % of control
